Data from US9708334B2, “Substituted 2,4,5,6-tetrahydropyrrolo[3,4-c]pyrazole and 4,5,6,7-tetrahydro-2H-pyrazolo[4,3-c]pyridine compounds as GlyT1 inhibitors” (DART NEUROSCIENCE (CAYMAN) LTD., priority 2014, dated 2017).

Biological target: T1, GlyT1 (Homo sapiens, UniProt P48067)
T1 construct: expressed in transfected cells
T1 sequence (P48067 1-706): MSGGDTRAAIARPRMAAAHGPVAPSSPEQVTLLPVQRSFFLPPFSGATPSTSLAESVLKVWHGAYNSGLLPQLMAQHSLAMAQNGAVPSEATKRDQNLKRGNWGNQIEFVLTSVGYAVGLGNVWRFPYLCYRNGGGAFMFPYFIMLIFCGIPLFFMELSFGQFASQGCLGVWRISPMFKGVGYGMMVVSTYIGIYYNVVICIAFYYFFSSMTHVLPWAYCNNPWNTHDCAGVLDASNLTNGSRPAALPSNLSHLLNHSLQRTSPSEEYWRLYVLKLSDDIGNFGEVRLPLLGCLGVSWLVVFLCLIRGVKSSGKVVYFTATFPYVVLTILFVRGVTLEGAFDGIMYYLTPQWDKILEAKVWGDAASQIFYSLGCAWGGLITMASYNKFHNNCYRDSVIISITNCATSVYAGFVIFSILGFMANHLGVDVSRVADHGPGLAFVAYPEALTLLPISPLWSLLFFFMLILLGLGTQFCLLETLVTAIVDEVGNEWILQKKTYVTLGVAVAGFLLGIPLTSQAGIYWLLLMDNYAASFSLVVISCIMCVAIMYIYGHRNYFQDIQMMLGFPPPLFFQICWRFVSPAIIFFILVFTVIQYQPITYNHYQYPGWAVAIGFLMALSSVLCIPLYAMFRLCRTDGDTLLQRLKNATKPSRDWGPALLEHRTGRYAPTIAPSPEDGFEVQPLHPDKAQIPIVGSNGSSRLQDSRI
Assay: Glycine Transporter 1 (GlyT1) uptake assay, scintillation proximity assay of [14C]-glycine uptake
Type: cell-based
Settings: SPA, four parameter logistic fit, read-out: GlyT1 (pIC50) (converted)
How it was run: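 IC50 values derive from four-parameter logistic curves fitted to dose-response data. Uptake of [14C]-glycine measured in scintillation proximity format.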

Compound	IC50 [µM]
CCS(=O)(=O)c1ccc(-c2ccccc2)c(C(=O)N2Cc3cn(-c4cncc(F)c4)nc3C2)c1 [Example 570, 3-{5[5-(Ethanesulfonyl)-2-phenylbenzoyl]-2H 4H 5H 6H-pyrrolo[3,4-c]pyrazol-2-yl}-5-fluoropyridine]	< 0.1
CCS(=O)(=O)c1ccc(-c2cccc(F)c2)c(C(=O)N2Cc3cn(-c4cncc(F)c4)nc3C2)c1 [Example 571]	< 0.1
CCS(=O)(=O)c1ccc(-c2cc(F)cc(F)c2)c(C(=O)N2Cc3cn(-c4cncc(F)c4)nc3C2)c1 [Example 572, 3-{5-[2-(3 5-Difluorophenyl)-5-(ethanesulfonyl)benzoyl]-2H 4H 5H 6H-pyrrolo[3,4-c]pyrazol-2-yl}-5-fluoropyridine]	0.1 to 1
CC(Oc1ccc(S(C)(=O)=O)cc1C(=O)N1CCc2n[nH]c(-c3ccccc3)c2C1)C(F)(F)F (centres unmarked) [Example 573, 5-{5-Methanesulfonyl-2-[(1 1 1-trifluoropropan-2-yl)oxy]benzoyl}-3-phenyl-2H 4H 5H 6H 7H-pyrazolo[4,3-c]pyridine]	1 to 10
CC(C)COc1ccc(S(C)(=O)=O)cc1C(=O)N1Cc2cn(-c3ccc(F)cc3)nc2C1 [Example 574, 2-(4-Fluorophenyl)-5-[5-methanesulfonyl-2-(2-methylpropoxy)benzoyl]-2H 4H 5H 6H-pyrrolo[3,4-c]pyrazole]	< 0.1
COc1c(C#N)ccc(OC(C)C(F)(F)F)c1C(=O)N1CCc2c(cnn2-c2ccc(F)cc2F)C1 (centres unmarked) [Example 575, 3-[1-(2 4-Difluorophenyl)-1H 4H 5H 6H 7H-pyrazolo[4,3-c]pyridine-5-carbonyl]-2-methoxy-4-[(1 1 1-trifluoropropan-2-yl)oxy]benzonitrile]	< 0.1
COc1c(C#N)ccc(OC(C)C(F)(F)F)c1C(=O)N1CCc2nn(-c3ccc(F)cc3)c(C(F)(F)F)c2C1 (centres unmarked) [Example 576, 3-[2-(4-Fluorophenyl)-3-(trifluoromethyl)-2H 4H 5H 6H 7H-pyrazolo[4,3-c]pyridine-5-carbonyl]-2-methoxy-4-[(1 1 1-trifluoropropan-2-yl)oxy]benzonitrile]	< 0.1
COc1c(C#N)ccc(OC(C)C(F)(F)F)c1C(=O)N1CCc2c(c(C(F)(F)F)nn2-c2ccc(F)cc2)C1 (centres unmarked) [Example 577, 3-[1-(4-Fluorophenyl)-3-(trifluoromethyl)-1H 4H 5H 6H 7H-pyrazolo[4,3-c]pyridine-5-carbonyl]-2-methoxy-4-[(1 1 1-trifluoropropan-2-yl)oxy]benzonitrile]	0.1 to 1
